Measurements as given in ChEMBL document CHEMBL1146699, “P3 cap modified Phe*-Ala series BACE inhibitors” (Bioorg Med Chem Lett, 2004).
pIC50: −log10 of the molar value.

Assays:
[1] = molecular target: Beta-secretase 1 (Homo sapiens, UniProt P56817); experiment: In vitro inhibitory activity against Beta-secretase 1 in human HEK293 cells; format: cell-based
[2] = system: HEK293; experiment: Inhibitory activity against beta-amyloid (Abeta) peptide in human HEK293/APP751swe cells; Range 4.8-7.5; format: functional, cell-based
[3] = system: HEK293; experiment: Inhibitory activity against beta-amyloid (Abeta) peptide in human HEK293/APP751swe cells; format: functional, cell-based
[4] = molecular target: T1, Beta-secretase 2 (Homo sapiens) (UniProt Q9Y5Z0); experiment: Selectivity tested against Beta-secretase 2 (BACE) in human
T1 sequence (whole entry): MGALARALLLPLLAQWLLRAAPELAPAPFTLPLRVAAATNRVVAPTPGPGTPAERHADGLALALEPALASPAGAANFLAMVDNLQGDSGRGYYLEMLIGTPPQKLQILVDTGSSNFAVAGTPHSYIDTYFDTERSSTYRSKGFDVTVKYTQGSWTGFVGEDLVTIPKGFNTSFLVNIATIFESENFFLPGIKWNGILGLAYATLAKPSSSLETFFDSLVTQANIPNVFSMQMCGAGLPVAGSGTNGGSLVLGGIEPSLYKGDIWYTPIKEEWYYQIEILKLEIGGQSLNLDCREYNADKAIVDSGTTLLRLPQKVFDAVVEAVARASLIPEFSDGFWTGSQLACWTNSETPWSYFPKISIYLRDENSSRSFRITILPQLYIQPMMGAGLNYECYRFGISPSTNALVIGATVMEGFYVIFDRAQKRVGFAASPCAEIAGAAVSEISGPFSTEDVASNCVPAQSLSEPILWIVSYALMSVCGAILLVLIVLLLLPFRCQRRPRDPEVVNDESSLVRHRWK

[5] = system: HEK293; experiment: Inhibitory activity against beta-amyloid (Abeta) peptide in human HEK293/APP751swe cells; Range 0.97-1.35; format: functional, cell-based

Beta-secretase 1, sequence (P56817 whole entry): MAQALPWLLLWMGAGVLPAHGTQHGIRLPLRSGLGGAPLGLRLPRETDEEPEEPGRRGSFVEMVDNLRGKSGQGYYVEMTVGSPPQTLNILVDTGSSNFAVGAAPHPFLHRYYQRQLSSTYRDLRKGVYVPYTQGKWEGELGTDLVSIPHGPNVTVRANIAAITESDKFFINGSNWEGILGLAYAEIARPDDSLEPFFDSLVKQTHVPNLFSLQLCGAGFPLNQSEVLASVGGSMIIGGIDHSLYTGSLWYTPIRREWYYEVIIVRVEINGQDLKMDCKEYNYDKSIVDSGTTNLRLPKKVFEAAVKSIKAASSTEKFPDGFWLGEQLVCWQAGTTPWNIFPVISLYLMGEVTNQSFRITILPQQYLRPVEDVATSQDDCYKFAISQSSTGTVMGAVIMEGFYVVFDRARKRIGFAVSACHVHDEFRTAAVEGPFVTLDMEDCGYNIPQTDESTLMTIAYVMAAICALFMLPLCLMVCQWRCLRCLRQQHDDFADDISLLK

Structure (SMILES) | pIC50 [1] | pIC50 [2] | pIC50 [3] | Selectivity [4] | pIC50 [5]
CC(C)[C@H](O)C(=O)N[C@@H](C)C(=O)N[C@@H](Cc1ccccc1)[C@@H](O)C[C@@H](C)C(=O)N[C@H](C(=O)NCc1ccncc1)C(C)C | 6.89 | > 5.12 | – | – | –
CC(C[C@H](O)[C@H](Cc1ccccc1)NC(=O)[C@H](C)NC(=O)[C@@H](F)C(C)C)C(=O)N[C@H](C(=O)NCc1ccncc1)C(C)C (single isomer, unassigned) | 5.95 | – | 4.31 | – | –
CC[C@H](C)[C@H](O)C(=O)N[C@@H](CC(C)C)C(=O)N[C@@H](Cc1ccccc1)[C@@H](O)CC(CC(C)C)C(=O)N[C@H](C(=O)NCc1ccncc1)C(C)C (single isomer, unassigned) | 6.75 | – | 5.43 | – | –
CC[C@H](C)[C@H](O)C(=O)N[C@@H](CCC(F)F)C(=O)N[C@@H](Cc1ccccc1)[C@@H](O)CC(CCC(F)F)C(=O)N[C@H](C(=O)NCc1ccncc1)C(C)C (single isomer, unassigned) | 7.35 | – | 5.97 | – | –
CCC(C[C@H](O)[C@H](Cc1ccccc1)NC(=O)[C@H](C)NC(=O)[C@@H](O)C(C)C)C(=O)N[C@H](C(=O)N[C@@H](C)c1ccccc1)C(C)C (single isomer, unassigned) | 7.22 | – | 4.70 | – | –
CC(C)C[C@H](O)C(=O)N[C@@H](C)C(=O)N[C@@H](Cc1ccccc1)[C@@H](O)CC(C)C(=O)N[C@H](C(=O)NCc1ccncc1)C(C)C (single isomer, unassigned) | 6.64 | – | 4.77 | – | –
CC(C[C@H](O)[C@H](Cc1ccccc1)NC(=O)[C@H](COC(C)(C)C)NC(=O)[C@@H](O)C(C)C)C(=O)N[C@H](C(=O)NCc1ccncc1)C(C)C (single isomer, unassigned) | 5.35 | – | – | – | –
CCC(C[C@H](O)[C@H](Cc1ccccc1)NC(=O)[C@H](C)NC(=O)[C@@H](O)C(C)C)C(=O)N[C@H](C(=O)N[C@H](C)c1ccccc1)C(C)C (single isomer, unassigned) | 7.00 | – | 4.87 | – | –
CC[C@H](C)[C@H](O)C(=O)N[C@@H](CC(F)F)C(=O)N[C@@H](Cc1ccccc1)[C@@H](O)C[C@@H](CC(F)F)C(=O)N[C@H](C(=O)NCc1ccncc1)C(C)C | 5.50 | – | < 4.43 | – | –
CC(C)CC(=O)N[C@@H](C)C(=O)N[C@@H](Cc1ccccc1)[C@@H](O)CC(C)C(=O)N[C@H](C(=O)NCc1ccncc1)C(C)C (single isomer, unassigned) | 5.76 | – | < 4.00 | – | –
CSCC[C@H](NC(=O)[C@@H](O)C(C)C)C(=O)N[C@@H](Cc1ccccc1)[C@@H](O)CC(C)C(=O)N[C@H](C(=O)NCc1ccncc1)C(C)C (single isomer, unassigned) | 6.46 | – | 4.60 | – | –
CC[C@H](C)[C@H](O)C(=O)N[C@@H](C)C(=O)N[C@@H](Cc1ccccc1)[C@@H](O)CC(C)C(=O)N[C@H](C(=O)NCc1ccncc1)C(C)C (single isomer, unassigned) | 7.46 | – | 5.91 | – | –
CC(C[C@H](O)[C@H](Cc1ccccc1)NC(=O)[C@@H](NC(=O)[C@@H](O)C(C)C)C(C)C)C(=O)N[C@H](C(=O)NCc1ccncc1)C(C)C (single isomer, unassigned) | 5.33 | – | – | – | –
CC(C[C@H](O)[C@H](Cc1ccccc1)NC(=O)[C@H](C)NC(=O)[C@@H](O)C(C)C)C(=O)N[C@H](C(=O)NCc1ccccc1)C(C)C (single isomer, unassigned) | 7.43 | – | 5.20 | – | –
CCC[C@H](NC(=O)[C@@H](O)C(C)C)C(=O)N[C@@H](Cc1ccccc1)[C@@H](O)CC(C)C(=O)N[C@H](C(=O)NCc1ccncc1)C(C)C (single isomer, unassigned) | 6.26 | – | 4.52 | – | –
CC(C[C@H](O)[C@H](Cc1ccccc1)NC(=O)[C@H](C)NC(=O)[C@@H](N)C(C)C)C(=O)NC(C(=O)NCc1ccncc1)C(C)C (single isomer, unassigned) | 6.72 | – | 4.42 | 0.52 | –
CC(C[C@H](O)[C@H](Cc1ccccc1)NC(=O)[C@H](C)NC(=O)[C@@H](O)CC(F)(F)F)C(=O)N[C@H](C(=O)NCc1ccncc1)C(C)C (single isomer, unassigned) | 6.66 | – | 5.41 | – | –
CC(C[C@H](O)[C@H](Cc1ccccc1)NC(=O)[C@H](CO)NC(=O)[C@@H](O)C(C)C)C(=O)N[C@H](C(=O)NCc1ccncc1)C(C)C (single isomer, unassigned) | 6.46 | – | 4.70 | – | –
CC[C@H](C)[C@H](O)C(=O)N[C@@H](CCCF)C(=O)N[C@@H](Cc1ccccc1)[C@@H](O)CC(CCCF)C(=O)N[C@H](C(=O)NCc1ccncc1)C(C)C (single isomer, unassigned) | 7.17 | – | – | – | > 5.87
